According to patent US20240174714A1, “TREATMENT OF SKIN DISORDERS” (priority 2021, published 2024):
pIC50: −log10 of the molar value. Read-outs that look alike come from different tables or passages of the source. Square brackets hold non-standard residues; d marks the D form. Peptide text beside a SMILES is read from it. * marks the point of attachment. NH((S)CH(Me)CH2NMe2) = C[C@@H](CN(C)C)N*; NH(1-CH2NMe2-cBu) = CN(C)CC1(N*)CCC1; Gly(octyl) = CCCCCCCC[C@H](N)C(=O)O; Oxazole4CO(2-Me) = Cc1nc(C(=O)*)co1; Benzoyl(4-F) = O=C(c1ccc(F)cc1)*; hCha = N[C@@H](CCC1CCCCC1)C(=O)O; Pyrrole2CO = O=C(c1ccc[nH]1)*; X10 = O=C(c1ccc2cccnc2c1)*; X12 = CN(C)CC1(N*)CCCC1; Aib = CC(C)(N)C(=O)O; X11 = CN(CCN*)CC(F)F; βAla = NCCC(=O)O

Tests used:
[1] = Cytotoxicity assay (Alamar Blue) on L6-cells; type: cell-based, rat
Procedure: Tests were done in triplicate.
The plates were incubated for additional 2 h.

[2] = test system: axenic Leishmania donovani MHOM-ET-67/L82 amastigotes; assay: In vitro antiprotozoal assay, axenic amastigotes; type: cell-based
Procedure: (§1) The testing of the inventive compounds against Leishmania donovani (strain MHOM/ET/67/L82) was performed in 96 well plates at concentrations in serial dilutions. Tests were done in triplicate.

[3] = test system: intracellular Leishmania donovani MHOM-ET-67/L82 amastigotes; assay: In vitro antiprotozoal assay, intracellular amastigotes; type: cell-based; conditions: Leishmania donovani; reference compound, L.don.InMac; read-out: IC50 Concurrent
Procedure: as §1

[4] = rat myoblast L6 cells, read-out: Cytotox L6 IC50
[5] = axenic amastigotes, read-out: L.don.ax. IC50

| Compound | IC50 at 68 h [1, 4] [nM] | IC50 at 68 h ([1]; rat) [nM] | pIC50 [2, 5] | also measured |
| --- | --- | --- | --- | --- |
| CC(C)C[C@H](NC(=O)[C@H](CCC1CCCCC1)NC(=O)[C@@H]1CCCN1C(=O)c1ccc(F)cc1)C(=O)NC(C)(C)C(=O)N[C@@H](CC(C)C)C(=O)N[C@@H](CC(C)C)C(=O)NC(C)(C)C(=O)NC(C)(C)C(=O)NCCC(=O)NCCN(C)CC(F)F [Compound 8342, (2S)-2-[(2S)-4-cyclohexyl-2-{[(2S)-1-(4-fluorobenzoyl)pyrrolidin-2-yl]formamido}butanamido]-N-(1-{[(1S)-1-{[(1S)-1-({1-[(1-{[2-({2-[(2,2-difluoroethyl)(methyl)amino]ethyl}carbamoyl)ethyl]carbamoyl}-1-methylethyl)carbamoyl]-1-methylethyl}carbamoyl)-3-methylbutyl]carbamoyl}-3-methylbutyl]carbamoyl}-1-methylethyl)-4-methylpentanamide] ({Benzoyl(4-F)}-P[hCha]L[Aib]LL[Aib][Aib][βAla]-X11) | 6790 | – | – | – |
| CCCCCCCC[C@H](NC(=O)[C@@H]1CCCN1C(=O)c1coc(C)n1)C(=O)N[C@@H](CC(C)C)C(=O)NC(C)(C)C(=O)N[C@@H](CC(C)C)C(=O)N[C@@H](CC(C)C)C(=O)NC(C)(C)C(=O)NC(C)(C)C(=O)NCCC(=O)NC1(CN(C)C)CCCC1 [Compound 6254, (2S)-N-[(1S)-1-[(1-{[(1S)-1-{[(1S)-1-({1-[(1-{[2-({1-[(dimethylamino)methyl]cyclopentyl}carbamoyl)ethyl]carbamoyl}-1-methylethyl)carbamoyl]-1-methylethyl}carbamoyl)-3-methylbutyl]carbamoyl}-3-methylbutyl]carbamoyl}-1-methylethyl)carbamoyl]-3-methylbutyl]-2-{[(2S)-1-(2-methyl-1,3-oxazole-4-carbonyl)pyrrolidin-2-yl]formamido}decanamide] ({Oxazole4CO(2-Me)}-P[Gly(octyl)]L[Aib]LL[Aib][Aib][βAla]-X12) | – | 528 | 8.60 | – |
| CCCCCCCC[C@H](NC(=O)[C@@H]1CCCN1C(=O)c1coc(C)n1)C(=O)N[C@@H](CC(C)C)C(=O)NC(C)(C)C(=O)N[C@@H](CC(C)C)C(=O)N[C@@H](CC(C)C)C(=O)NC(C)(C)C(=O)NC(C)(C)C(=O)NCCC(=O)NC1(CN(C)C)CCC1 [Compound 6253, (2S)-N-[(1S)-1-[(1-{[(1S)-1-{[(1S)-1-({1-[(1-{[2-({1-[(dimethylamino)methyl]cyclobutyl}carbamoyl)ethyl]carbamoyl}-1-methylethyl)carbamoyl]-1-methylethyl}carbamoyl)-3-methylbutyl]carbamoyl}-3-methylbutyl]carbamoyl}-1-methylethyl)carbamoyl]-3-methylbutyl]-2-{[(2S)-1-(2-methyl-1,3-oxazole-4-carbonyl)pyrrolidin-2-yl]formamido}decanamide] ({Oxazole4CO(2-Me)}-P[Gly(octyl)]L[Aib]LL[Aib][Aib][βAla]-{NH(1-CH2NMe2-cBu)}) | – | 945 | 8.59 | – |
| CCCCCCCC[C@H](NC(=O)[C@@H]1CCCN1C(=O)c1ccc[nH]1)C(=O)N[C@@H](CC(C)C)C(=O)NC(C)(C)C(=O)N[C@@H](CC(C)C)C(=O)N[C@@H](CC(C)C)C(=O)NC(C)(C)C(=O)NC(C)(C)C(=O)NCCC(=O)N[C@@H](C)CN(C)C [Compound 5939, (2S)-N-[(1S)-1-[(1-{[(1S)-1-{[(1S)-1-{[1-({1-[(2-{[(2S)-1-(dimethylamino)propan-2-yl]carbamoyl}ethyl)carbamoyl]-1-methylethyl}carbamoyl)-1-methylethyl]carbamoyl}-3-methylbutyl]carbamoyl}-3-methylbutyl]carbamoyl}-1-methylethyl)carbamoyl]-3-methylbutyl]-2-{[(2S)-1-(1H-pyrrole-2-carbonyl)pyrrolidin-2-yl]formamido}decanamide] (Pyrrole2CO-P[Gly(octyl)]L[Aib]LL[Aib][Aib][βAla]-{NH((S)CH(Me)CH2NMe2)}) | – | 611 | 8.10 | – |
| Cc1nc(C(=O)N2CCC[C@H]2C(=O)N[C@@H](Cc2ccccc2)C(=O)N[C@@H](CC(C)C)C(=O)NC(C)(C)C(=O)N[C@@H](CC(C)C)C(=O)N[C@@H](CC(C)C)C(=O)NC(C)(C)C(=O)NC(C)(C)C(=O)NCCC(=O)NC2(CN(C)C)CCC2)co1 [Compound 6328, (2S)-N-(1-{[(1S)-1-{[(1S)-1-({1-[(1-{[2-({1-[(dimethylamino)methyl]cyclobutyl}carbamoyl)ethyl]carbamoyl}-1-methylethyl)carbamoyl]-1-methylethyl}carbamoyl)-3-methylbutyl]carbamoyl}-3-methylbutyl]carbamoyl}-1-methylethyl)-4-methyl-2-[(2S)-2-{[(2S)-1-(2-methyl-1,3-oxazole-4-carbonyl)pyrrolidin-2-yl]formamido}-3-phenylpropanamido]pentanamide] (HELM PEPTIDE1{[Cc1nc(C(=O)[*:2])co1].P.F.L.[Aib].L.L.[Aib].[Aib].[bAla].[CN(C)CC1(N[*:1])CCC1]}$$$$V2.0) | – | 8720 | 6.42 | – |
| CCCCCCCC[C@H](NC(=O)[C@@H]1CCCN1C(=O)c1ccc2cccnc2c1)C(=O)N[C@@H](CC(C)C)C(=O)NC(C)(C)C(=O)N[C@@H](CC(C)C)C(=O)N[C@@H](CC(C)C)C(=O)NC(C)(C)C(=O)NC(C)(C)C(=O)NCCC(=O)N[C@@H](C)CN(C)C [Compound 5938, (2S)-N-[(1S)-1-[(1-{[(1S)-1-{[(1S)-1-{[1-({1-[(2-{[(2S)-1-(dimethylamino)propan-2-yl]carbamoyl}ethyl)carbamoyl]-1-methylethyl}carbamoyl)-1-methylethyl]carbamoyl}-3-methylbutyl]carbamoyl}-3-methylbutyl]carbamoyl}-1-methylethyl)carbamoyl]-3-methylbutyl]-2-{[(2S)-1-(quinoline-7-carbonyl)pyrrolidin-2-yl]formamido}decanamide] (X10-P[Gly(octyl)]L[Aib]LL[Aib][Aib][βAla]-{NH((S)CH(Me)CH2NMe2)}) | 714 | – | – | pIC50 [2]: 7.89 |
| Cc1nc(C(=O)N2CCC[C@H]2C(=O)N[C@@H](CCC2CCCCC2)C(=O)N[C@@H](CC(C)C)C(=O)NC(C)(C)C(=O)N[C@@H](CC(C)C)C(=O)N[C@@H](CC(C)C)C(=O)NC(C)(C)C(=O)NC(C)(C)C(=O)NCCC(=O)NCCN(C)CC(F)F)co1 [Compound 6488, (2S)-2-[(2S)-4-cyclohexyl-2-{[(2S)-1-(2-methyl-1,3-oxazole-4-carbonyl)pyrrolidin-2-yl]formamido}butanamido]-N-(1-{[(1S)-1-{[(1S)-1-({1-[(1-{[2-({2-[(2,2-difluoroethyl)(methyl)amino]ethyl}carbamoyl)ethyl]carbamoyl}-1-methylethyl)carbamoyl]-1-methylethyl}carbamoyl)-3-methylbutyl]carbamoyl}-3-methylbutyl]carbamoyl}-1-methylethyl)-4-methylpentanamide] ({Oxazole4CO(2-Me)}-P[hCha]L[Aib]LL[Aib][Aib][βAla]-X11) | 7180 | – | 6.37 | – |
| CCCCCCCCCCCCCCCCOP(=O)([O-])OCC[N+](C)(C)C [Miltefosine, reference compound] | – | – | – | pIC50 [3]: 6.79; pIC50 ([2]; Leishmania donovani, reference compound, L.don.ax., read-out: IC50 Concurrent): 6.79 |
